Data on eleven molecules can be found in patent publication US20080125467A1, “Amino-Containing Compounds Which Inhibit Memapsin 2 Beta-Secretase Activity and Methods of Use Thereof” (priority 2004, published 2008).

SMILES strings stand for the structures.

In the test the target is T1, memapsin 2 (Cricetulus griseus, UniProt G3IAK4).
T1 construct: endogenous in cells; host or cells: Chinese hamster ovary cells over-expressing human APP695 (London + Swedish)
T1 sequence (G3IAK4 22-501): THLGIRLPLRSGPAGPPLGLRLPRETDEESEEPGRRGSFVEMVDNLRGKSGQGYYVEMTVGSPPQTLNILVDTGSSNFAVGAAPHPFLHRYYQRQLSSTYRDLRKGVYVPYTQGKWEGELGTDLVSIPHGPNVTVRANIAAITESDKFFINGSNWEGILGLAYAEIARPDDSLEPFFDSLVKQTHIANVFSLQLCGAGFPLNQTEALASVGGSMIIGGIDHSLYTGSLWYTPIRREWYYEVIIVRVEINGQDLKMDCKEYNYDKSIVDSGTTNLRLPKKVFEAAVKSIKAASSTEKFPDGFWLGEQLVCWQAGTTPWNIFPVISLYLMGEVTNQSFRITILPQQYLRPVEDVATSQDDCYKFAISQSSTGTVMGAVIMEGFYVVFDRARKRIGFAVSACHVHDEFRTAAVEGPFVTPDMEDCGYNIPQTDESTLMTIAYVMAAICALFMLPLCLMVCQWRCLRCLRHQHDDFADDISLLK
The test can be described thus: Cellular Aβ IC50 determination (Aβ40 sandwich ELISA). Type of test: cell-based. The settings on record: Chinese hamster ovary cells over-expressing human APP695 with London and Swedish mutations, 24 h. As to the method:
The potency of compounds against memapsin 2 activity was determined in a cellular assay of Aβ production. […] Chinese hamster ovary cells that over-express human APP695 with the London and Swedish mutations were seeded in multi-well plates at 10% confluency. Compounds were dissolved in DMSO to concentrations near 1 mM, and diluted into culture media to a final concentration near 4 μM (final 0.4% DMSO). Compounds were diluted serially and applied to cells in multi-well plates 48 h after seeding. Incubation was continued in 5% CO2 at 37 degrees C. for 24 h. Aliquots were removed and assayed for Aβ40 content using a sandwich ELISA (BioSource International). Amount of Aβ40 over the range of concentration of compounds, relative to control incubations, were fit to a 4-parameter IC50 model.
Background: ELISA stands for enzyme-linked immunosorbent assay.
With `Cc1csc(COC(=O)N[C@@H](CNS(C)(=O)=O)C(=O)N[C@@H](CC(C)C)[C@@H](O)C[C@@H](C)C(=O)N[C@H](C(=O)NCC(C)C)C(C)C)n1`, the IC50 (usually the point on the concentration scale where inhibition reaches its midpoint) was above 100 µM.

`Cc1csc(COC(=O)N[C@@H](CNC(=O)OC(C)(C)C)C(=O)N[C@@H](CC(C)C)[C@@H](O)C[C@@H](C)C(=O)N[C@H](C(=O)NCC(C)C)C(C)C)n1`: the IC50 is above 100 µM.

`COC(=O)NC[C@H](NC(=O)OCc1nc(C)cs1)C(=O)N[C@@H](CC(C)C)[C@@H](O)C[C@@H](C)C(=O)N[C@H](C(=O)NCC(C)C)C(C)C` showed an IC50 below 6 µM.

`Cc1csc(COC(=O)N[C@@H](CNC(=O)O[C@H]2CCOC2)C(=O)N[C@@H](CC(C)C)[C@@H](O)C[C@@H](C)C(=O)N[C@H](C(=O)NCC(C)C)C(C)C)n1`: the IC50 lay within 6 to 100 µM.

On to `CCC(Cn1nc(C)cc1C)C(=O)NC(CNC(=O)OCCF)C(=O)NC(CC(C)C)C(O)CC(C)C(=O)NC(C(=O)NCC(C)C)C(C)C` (centres unmarked) [2-fluoroethyl 2-(2-((3,5-dimethyl-1H-pyrazol-1-yl)methyl)butanamido)-3-(5-hydroxy-8-(1-(isobutylamino)-3-methyl-1-oxobutan-2-ylamino)-2,7-dimethyl-8-oxooctan-4-ylamino)-3-oxopropylcarbamate], for which the IC50 was 6 to 100 µM.

Molecule `COCCOC(=O)NCC(NC(=O)C(C)Cc1nc(C)cs1)C(=O)NC(CC(C)C)C(O)CC(C)C(=O)NC(C(=O)NCC(C)C)C(C)C` (centres unmarked) [2-methoxyethyl 3-(5-hydroxy-8-(1-(isobutylamino)-3-methyl-1-oxobutan-2-ylamino)-2,7-dimethyl-8-oxooctan-4-ylamino)-2-(2-methyl-3-(4-methylthiazol-2-yl)propanamido)-3-oxopropylcarbamate] showed an IC50 below 6 µM.

On to `Cc1csc(CC(C)C(=O)NC(CN(C)S(C)(=O)=O)C(=O)NC(CC(C)C)C(O)CC(C)C(=O)NC(C(=O)NCC(C)C)C(C)C)n1` (centres unmarked) [4-hydroxy-N-(1-(isobutylamino)-3-methyl-1-oxobutan-2-yl)-2,7-dimethyl-5-(2-(2-methyl-3-(4-methylthiazol-2-yl)propanamido)-3-(N-methylmethylsulfonamido)propanamido)octanamide], for which the IC50 lay in the range of 6 to 100 µM.

`CCC(Cc1nc(C)cs1)C(=O)NC(CN(C)OC)C(=O)NC(CC(C)C)C(O)CC(C)C(=O)NC(C(=O)NCC(C)C)C(C)C` (centres unmarked) [4-hydroxy-N-(1-(isobutylamino)-3-methyl-1-oxobutan-2-yl)-5-(3-(methoxy(methyl)amino)-2-(2-((4-methylthiazol-2-yl)methyl)butanamido)propanamido)-2,7-dimethyloctanamide] registered an IC50 above 100 µM.

Take `Cc1csc(CC(C)C(=O)NC(CNS(C)(=O)=O)C(=O)NC(CC(C)C)C(O)CC(C)C(=O)NC(C(=O)NCC(C)C)C(C)C)n1` (centres unmarked) [4-hydroxy-N-(1-(isobutylamino)-3-methyl-1-oxobutan-2-yl)propanamido)-3-(methylsulfonamido)propanamido)octanamide]: the IC50 is below 6 µM.

On to `CC(=O)NCC(NC(=O)C(C)Cc1nc(C)cs1)C(=O)NC(CC(C)C)C(O)CC(C)C(=O)NC(C(=O)NCC(C)C)C(C)C` (centres unmarked) [5-(3-acetamido-2-(2-methyl-3-(4-methylthiazol-2-yl)propanamido)propanamido)-4-hydroxy-N-(1-(isobutylamino)-3-methyl-1-oxobutan-2-yl)-2,7-dimethyloctanamide], for which the IC50 was 6 to 100 µM.

In turn, `Cc1csc(CC(C)C(=O)NC(CN)C(=O)NC(CC(C)C)C(O)CC(C)C(=O)NC(C(=O)NCC(C)C)C(C)C)n1` (centres unmarked) [5-(3-amino-2-(2-methyl-3-(4-methylthiazol-2-yl)propanamido)propanamido)-4-hydroxy-N-(1-(isobutylamino)-3-methyl-1-oxobutan-2-yl)-2,7-dimethyloctanamide] had an IC50 of 6 to 100 µM.
